Experimental data published in patent US8871252B2, “pH-responsive liposome” (Nanotheta Co, Ltd., priority 2009, dated 2014).

Assays:
[1] = pH change behavior of citric acid-loaded liposomes added to aqueous sodium hydroxide; format: physicochemical; conditions: upon addition to 4 mL of 300 μM aqueous sodium hydroxide (pH 10.5)
Protocol: Each lipid mixture (20 mg) was hydrated in 20 mM citric acid (pH 2.2), and the dispersion was subjected to extrusion (final pore size: 0.22 μm) to prepare liposomes having a particle size of 200 to 300 nm. When required, pH change behavior was measured with a pH meter immediately after addition of the liposome dispersion ([lipid]=55 mg/mL, 10 μL) or citric acid (20 mM, 10 μL) to 4 mL of 300 μM aqueous sodium hydroxide (pH 10.5).

[2] = Release behavior of citric acid from liposomes in a weakly basic environment (pH meter); format: physicochemical; conditions: after pH of the mixture changed to 7.5 to 8.5 with sodium hydroxide
Protocol: The release behavior of citric acid from liposomes was studied in a weakly basic environment. First, to an aqueous liquid of citric acid having liposomes dispersed therein ([lipid]=250 μM, 4 mL) or an aqueous solution of citric acid (30 mM, pH 2.2, 4 mL), 2M aqueous sodium hydroxide (170 μL) was added to adjust the pH of the mixture to 6.5. Then, 300 mM aqueous sodium hydroxide (60 μL) was added to change the pH of the mixture to 7.5 to 8.5. The subsequent pH change behavior was monitored over time with a pH meter.

pH reached (sudden decrease) [1]: 7.0
nearly constant pH reached [2]: ~7
Compound: O=C(O)CC(O)(CC(=O)O)C(=O)O [citric acid]
